Results as given in PubChem BioAssay AID2060902 (Molecular Pharmacology Branch, DTP, NCI, 2025).

Tested on: 485368-065-R3-J5-PDC spheroids with HUVEC/MSC, viability
Assay: Anticancer human tumor 485368-065-R3-J5-PDC patient-derived pancreatic carcinoma cell line growth inhibition [RAS]
Conditions: for IC50: curve of first compound; for viability, T/C: stronger effect = lower value
How it was run: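 Agents were tested in combination matrices in half-log decrements from a top concentration at or near clinical Cmax (10 microM if undetermined). Targets were multi-cell spheroids of tumour lines plus HUVEC and MSC stromal cells.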
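Note: spheroids exposed to agents for seven days before readout.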

Work on `CCN1CCN(Cc2ccc(Nc3ncc(F)c(-c4cc(F)c5nc(C)n(C(C)C)c5c4)n3)nc2)CC1` + C=CC(=O)N1CCN(c2nc(OCC3CCCN3C)nc3c(F)c(-c4nc(N)cc(C)c4C(F)(F)F)c(Cl)cc23)C(C)C1 yielded an IC50 (second compound 0.00316 µM) of 316 nM, an IC50 (second compound 0.01 µM) of 300 nM and an IC50 (second compound 0.0316 µM) of 454 nM. For the same compound, the IC50 (second compound 0.1 µM) was 644 nM, the IC50 (second compound 0.316 µM) was 604 nM and the IC50 (second compound 1 µM) was 627 nM. It also gave a viability, T/C (second compound 0.00316 µM, first compound 0.00316 µM) of 107%, a viability, T/C (second compound 0.00316 µM, first compound 0.01 µM) of 95.8% and a viability, T/C (second compound 0.00316 µM, first compound 0.0316 µM) of 82.5%. It also gave a viability, T/C (second compound 0.00316 µM, first compound 0.1 µM) of 61.7%, a viability, T/C (second compound 0.00316 µM, first compound 0.316 µM) of 48.1% and a viability, T/C (second compound 0.00316 µM, first compound 1 µM) of 47%. It also gave a viability, T/C (second compound 0.01 µM, first compound 0.00316 µM) of 107%, a viability, T/C (second compound 0.01 µM, first compound 0.01 µM) of 96.7% and a viability, T/C (second compound 0.01 µM, first compound 0.0316 µM) of 81.3%. It also gave a viability, T/C (second compound 0.01 µM, first compound 0.1 µM) of 64.3%, a viability, T/C (second compound 0.01 µM, first compound 0.316 µM) of 49.6% and a viability, T/C (second compound 0.01 µM, first compound 1 µM) of 38%. For the same compound, the viability, T/C (second compound 0.0316 µM, first compound 0.00316 µM) was 106%, the viability, T/C (second compound 0.0316 µM, first compound 0.01 µM) was 98.8% and the viability, T/C (second compound 0.0316 µM, first compound 0.0316 µM) was 82.1%. It also gave a viability, T/C (second compound 0.0316 µM, first compound 0.1 µM) of 73.4%, a viability, T/C (second compound 0.0316 µM, first compound 0.316 µM) of 52.9% and a viability, T/C (second compound 0.0316 µM, first compound 1 µM) of 40.5%. It also gave a viability, T/C (second compound 0.1 µM, first compound 0.00316 µM) of 94.8%, a viability, T/C (second compound 0.1 µM, first compound 0.01 µM) of 88.1% and a viability, T/C (second compound 0.1 µM, first compound 0.0316 µM) of 90.1%. For the same compound, the viability, T/C (second compound 0.1 µM, first compound 0.1 µM) was 76.8%, the viability, T/C (second compound 0.1 µM, first compound 0.316 µM) was 60.2% and the viability, T/C (second compound 0.1 µM, first compound 1 µM) was 43.8%. The viability, T/C (second compound 0.316 µM, first compound 0.00316 µM) was 97.5%, the viability, T/C (second compound 0.316 µM, first compound 0.01 µM) was 96.2% and the viability, T/C (second compound 0.316 µM, first compound 0.0316 µM) was 81%. For the same compound, the viability, T/C (second compound 0.316 µM, first compound 0.1 µM) was 65.5%, the viability, T/C (second compound 0.316 µM, first compound 0.316 µM) was 62.4% and the viability, T/C (second compound 0.316 µM, first compound 1 µM) was 42.7%. The viability, T/C (second compound 1 µM, first compound 0.00316 µM) was 106%, the viability, T/C (second compound 1 µM, first compound 0.01 µM) was 88.3% and the viability, T/C (second compound 1 µM, first compound 0.0316 µM) was 80.3%. For the same compound, the viability, T/C (second compound 1 µM, first compound 0.1 µM) was 68%, the viability, T/C (second compound 1 µM, first compound 0.316 µM) was 57.3% and the viability, T/C (second compound 1 µM, first compound 1 µM) was 44.8%.
